From US20090186832A1 (priority 2008, published 2009)
Values joined by “and” are separate entries in the source; they are usually repeats but may differ in a detail not shown here. Identical values can stand only once. Counter-ions that a name gives are not always drawn. Like-named read-outs stand apart in the source and are kept apart here. Marks after values point to notes of the source that are not given here.

Columns and labels:
[1] = for Meptazinol T>50% Cmax: analyte meptazinol, oral 1 mg meptazinol free base equivalents/kg
[2] = for Simulated gastric fluid (pH 1.1): % remaining after 2 h/37° C. / Simulated intestinal fluid (pH 6.8): % remaining after 2 h/37° C.: simulated gi fluid
[3] = dog, in vivo; for Cmax (mean ng/mL ± SD) / AUC (mean ngh/mL ± SD): po
[4] = plasma meptazinol, oral 1 mg meptazinol free base/kg, group 1 dogs (G1)

CCC1(c2cccc(OC(=O)NC(C)C(=O)NC(C)C(=O)O)c2)CCCCN(C)C1.O=C(O)C(F)(F)F (mixture of isomers) [Meptazinol ala-ala dipeptide TFA salt]
AUC (mean ngh/mL ± SD) [1, 4]: 11.4 ± 2.9 ngh/mL
Cmax (mean ng/mL ± SD) [1, 4]: 2.73 ± 1.28 ng/mL

CCC1(c2cccc(OC(=O)NC(C)C(=O)O)c2)CCCCN(C)C1.Cl (mixture of isomers) [Meptazinol alanine carbamate HCl salt]
Mean relative bioavailability % ([1]; dog, in vivo): 116%
AUC (mean ngh/mL ± SD) ([1]; dog, in vivo, po): 16.3 ± 3.6
Cmax (mean ng/mL ± SD) ([1]; dog, in vivo, po): 5.2 ± 1.59 ng/mL

CCC1(c2cccc(OC(=O)NC(CC(=O)O)C(=O)O)c2)CCCCN(C)C1.O=C(O)C(F)(F)F (mixture of isomers) [Meptazinol apartic acid carbamate TFA salt]
Mean relative bioavailability % ([1]; dog, in vivo): 273%
AUC (mean ngh/mL ± SD), *AUC0-t ([1]; dog, in vivo, po): 34.8* ± 1.0
Cmax (mean ng/mL ± SD) ([1]; dog, in vivo, po): 2.65 ± 0.34 ng/mL

CCC1(c2cccc(OC(=O)NC(CC(C)C)C(=O)O)c2)CCCCN(C)C1.O=C(O)C(F)(F)F (mixture of isomers) [Meptazinol leucine carbamate TFA salt]
Mean relative bioavailability % ([1]; dog, in vivo): 70%
AUC (mean ngh/mL ± SD) ([1]; dog, in vivo, po): 9.27 ± 1.6
Cmax (mean ng/mL ± SD) ([1]; dog, in vivo, po): 3.32 ± 1.4 ng/mL

CCC1(c2cccc(OC(=O)NC(Cc3c[nH]c4ccccc34)C(=O)O)c2)CCCCN(C)C1.O=C(O)C(F)(F)F (mixture of isomers) [Meptazinol tryptophan carbamate TFA salt]
Mean relative bioavailability % ([1]; dog, in vivo): 149%
AUC (mean ngh/mL ± SD), *AUC0-t ([1]; dog, in vivo, po): 19.1* ± 8.9
Cmax (mean ng/mL ± SD) ([1]; dog, in vivo, po): 8.21 ± 2.56 ng/mL

CCC1(c2cccc(OC(=O)NC(Cc3ccc(O)cc3)C(=O)O)c2)CCCCN(C)C1.O=C(O)C(F)(F)F (mixture of isomers) [Meptazinol tyrosine carbamate TFA salt]
Mean relative bioavailability % ([1]; dog, in vivo): 52%
AUC (mean ngh/mL ± SD), *AUC0-t ([1]; dog, in vivo, po): 6.61* ± 0.70
Cmax (mean ng/mL ± SD) ([1]; dog, in vivo, po): 2.23 ± 0.16 ng/mL

CCC1(c2cccc(OC(=O)NC(C(=O)OC)C(C)C)c2)CCCCN(C)C1.Cl (mixture of isomers) [Meptazinol valine carbamate methyl ester HCl]
Mean relative bioavailability % ([1]; dog, in vivo): 606%
AUC (mean ngh/mL ± SD) ([1]; dog, in vivo, po): 78.1 ± 17.1
Cmax (mean ng/mL ± SD) ([1]; dog, in vivo, po): 44.8 ± 8.2 ng/mL

CCC1(c2cccc(OC(=O)NCC(=O)O)c2)CCCCN(C)C1.O=C(O)C(F)(F)F (racemic) [Meptazinol glycine carbamate TFA salt]
Mean relative bioavailability % ([1]; dog, in vivo): 79%
AUC (mean ngh/mL ± SD), *AUC0-t ([1]; dog, in vivo, po): 10.2* ± 3.4
Cmax (mean ng/mL ± SD) ([1]; dog, in vivo, po): 2.51 ± 0.90 ng/mL

COC12CCC3(CC1C(C)(O)C(C)(C)C)C1Cc4ccc(OC(=O)NC(CC(=O)O)C(=O)O)c5c4C3(CCN1CC1CC1)C2O5 (centres unmarked) [Buprenorphine-Asp-Carbamate]
pH 10.0 buffer: % remaining after 2 h/20° C. [2]: 85%
Distilled water (pH 5.9): % remaining after 2h/20° C. [2]: 100%
Simulated gastric fluid (pH 1.1): % remaining after 2 h/37° C. [2]: 100%
Simulated intestinal fluid (pH 6.8): % remaining after 2 h/37° C. [2]: 99%

CCC(C)[C@H](NC(=O)Oc1cccc(C2(CC)CCCCN(C)C2)c1)C(=O)O (some centres unmarked) [Meptazinol isoleucine carbamate TFA salt]
AUC (mean ngh/mL ± SD) [1, 4]: 34.9 ± 11 ngh/mL

CCC1(c2cccc(OC(=O)N[C@H](C(=O)N[C@@H](C)C(=O)O)C(C)C)c2)CCCCN(C)C1 (some centres unmarked) [Meptazinol val-ala dipeptide TFA salt]
AUC (mean ngh/mL ± SD) [1, 4]: 36.5 ± 13 ngh/mL

CCC1(c2cccc(OC(=O)N[C@H](C(=O)NCC(=O)O)C(C)C)c2)CCCCN(C)C1 (some centres unmarked) [Meptazinol val-gly dipeptide TFA salt]
AUC (mean ngh/mL ± SD) [1, 4]: 39.9 ± 17 ngh/mL

CCC1(c2cccc(OC(=O)N[C@H](C(=O)N[C@H](C(=O)O)C(C)C)C(C)C)c2)CCCCN(C)C1 (stereo partly drawn) [Meptazinol val-val dipeptide TFA salt, meptazinol-(S)-valine-(S)-valine carbamate trifluoroacetate]
AUC (mean ngh/mL ± SD) [1, 4]: 45.0 ± 12 ngh/mL

CCC1(c2cccc(OC(=O)N[C@H](C(=O)O)C(C)C)c2)CCCCN(C)C1 (some centres unmarked) [Meptazinol valine carbamate HCl, 2-[3-(3-Ethyl-1-methyl-azepin-3-yl)-phenoxycarbonylamino]-3-methyl-butyric acid hydrochloride]
Meptazinol T>50% Cmax ([1]; individual dogs 1-5, hydrochloride): 0.5 h (3×) and 1.5 h (2×)
Meptazinol T>50% Cmax ([1]; median value): 0.5^a h
AUC (mean ngh/mL ± SD) ([1]; plasma meptazinol, oral 1 mg meptazinol free base/kg, group 2 dogs (G2), hydrochloride): 67.6 ± 9.2 ngh/mL

CCC1(c2cccc(OC(=O)N[C@H](C(=O)O)C(C)C)c2)CCCCN(C)C1 (stereo partly drawn) [Meptazinol valine carbamate TFA salt, meptazinol-(S)-valine carbamate trifluoroacetate]
AUC (mean ngh/mL ± SD) [1, 4]: 67.7 ± 25 ngh/mL

CCC1(c2cccc(OC(=O)N[C@H](C(=O)O)C(C)C)c2)CCCCN(C)C1 (some centres unmarked) [Meptazinol valine carbamate camsylate]
AUC (mean ngh/mL ± SD) [1, 4]: 62.4 ± 20.4 ngh/mL

CCC1(c2cccc(OC(=O)N[C@H](C(=O)O)C(C)C)c2)CCCCN(C)C1 (some centres unmarked) [Meptazinol valine carbamate zwitterion]
AUC (mean ngh/mL ± SD) ([1]; plasma meptazinol, oral 1 mg meptazinol free base/kg, group 2 dogs (G2)): 84.9 ± 40.6 ngh/mL

CCC1(c2cccc(OC(=O)N[C@H](C(=O)O)C(C)C)c2)CCCCN(C)C1 (some centres unmarked) [Meptazinol-Val-Carbamate]
pH 10.0 buffer: % remaining after 2 h/20° C. [2]: 66%

CN1CC[C@]23c4c5ccc(O)c4O[C@H]2C(=O)CC[C@@]3(O)[C@H]1C5 [Oxymorphone HCl, reference compound]
Cmax (mean ng/mL ± SD) ([3]; Beagle, 0.5 mg/kg): 3.8 ± 0.77 ng/mL
AUC (mean ngh/mL ± SD) [3]: 12.2 ± 1.6

CN1CC[C@]23c4c5ccc(OC(=O)NCC(=O)O)c4O[C@H]2C(=O)CC[C@@]3(O)[C@H]1C5.O=C(O)C(F)(F)F [Oxymorphone glycine carbamate TFA]
Mean relative bioavailability % [3]: 554%
AUC (mean ngh/mL ± SD) [3]: 67.9 ± 34.1
Cmax (mean ng/mL ± SD) [3]: 21 ± 10.9 ng/mL

CSCC[C@@H](NC(=O)Oc1ccc2c3c1OC1C(=O)CC[C@@]4(O)[C@@H](C2)N(C)CC[C@]314)C(=O)O (some centres unmarked) [Oxymorphone methionine carbamate TFA]
Mean relative bioavailability % ([3]; Beagle, 0.5 mg/kg): 436%
Cmax (mean ng/mL ± SD) ([3]; Beagle, 0.5 mg/kg): 13.8 ± 4.6 ng/mL
AUC (mean ngh/mL ± SD) [3]: 55.4 ± 15.2

CN1CC[C@]23c4c5ccc(OC(=O)N[C@@H](Cc6ccccc6)C(=O)O)c4O[C@H]2C(=O)CC[C@@]3(O)[C@H]1C5.Cl [Oxymorphone phenylalanine carbamate HCl]
Mean relative bioavailability % [3]: 244%
AUC (mean ngh/mL ± SD) [3]: 29.5 ± 2.2
Cmax (mean ng/mL ± SD) [3]: 5.45 ± 1.32 ng/mL

CN1CC[C@]23c4c5ccc(OC(=O)N[C@@H](Cc6ccc(O)cc6)C(=O)O)c4O[C@H]2C(=O)CC[C@@]3(O)[C@H]1C5.O=C(O)C(F)(F)F [Oxymorphone tyrosine carbamate TFA]
Mean relative bioavailability % [3]: 157%
AUC (mean ngh/mL ± SD) [3]: 17.3 ± 3.0
Cmax (mean ng/mL ± SD) [3]: 4.62 ± 1.12 ng/mL

CSCC[C@@H](NC(=O)Oc1ccc2c3c1OC1C(=O)CC[C@@]4(O)[C@@H](C2)N(C)CC[C@]314)C(=O)O (some centres unmarked) [Oxymorphone-Methio-Carbamate]
pH 10.0 buffer: % remaining after 2 h/20° C. [2]: 8%
Distilled water (pH 5.9): % remaining after 2h/20° C. [2]: 100%
Simulated gastric fluid (pH 1.1): % remaining after 2 h/37° C. [2]: 100%
Simulated intestinal fluid (pH 6.8): % remaining after 2 h/37° C. [2]: 96%

Oxymorphone isoleucine carbamate TFA
Mean relative bioavailability % [3]: 570%
AUC (mean ngh/mL ± SD) [3]: 65.8 ± 32
Cmax (mean ng/mL ± SD) [3]: 17.2 ± 9.9 ng/mL

Oxymorphone valine carbamate TFA
Mean relative bioavailability % [3]: 816%
AUC (mean ngh/mL ± SD) [3]: 51.2 ± 35
Cmax (mean ng/mL ± SD) [3]: 14.6 ± 8.69 ng/mL
